For one data set, the target named is R23L/R24L ePNPO (Escherichia coli, UniProt P0AFI7, R23L/R24L). As to the kind of experiment: PLP binding stoichiometry, fluorimetric titration. As to conditions: titration of 2, 4 and 8 μM ePNPO with PLP.
The target in data set [1] is T1, ePNPO R23L/R24L variant (Escherichia coli, UniProt P0AFI7, R23L/R24L). As to the kind of experiment: biochemical. It is filed as biochemical. Further details: the entire polypeptide chain is made by 218 residues; made in house; host or cells: E. coli MDS00, pET22b(+). The text has this:
Initial velocity data obtained with all variant forms were fitted to the Michaelis–Menten equation in order to obtain apparent VMAX and KM values as a function of PLP concentration.
Figure 7 Kinetic analysis of PLP inhibition with Arg-cage variants. […] Initial velocity measurements shown in the left panels are the average ± standard deviation of three independent measurements. Saturation curves were fitted to the Michaelis–Menten equation, obtaining apparent VMAX and KM values as a function of PLP concentration. These are represented as 1/VMAX (blue symbols) and KM/VMAX (red symbols) in the right panels, in order to facilitate the interpretation of the PLP inhibition mechanism from the shape of graphs, which correspond to the classic secondary plots of the Y-intercept and slope derived from Lineweaver–Burk plots. As detailed in the Experimental Procedures section, initial velocity data and 1/VMAX and KM/VMAX values of each data set were globally fitted to Equations (3), (4), (5), obtaining the continuous lines shown in the graphs and the parameter values shown in Table 3.
In order to analyze the above-mentioned kinetic data, a general inhibition model was considered (Fig. 8A), in which PLP binds at both the active and allosteric sites. […] Therefore, the dissociation constant of the substrate binding equilibrium may be assumed to correspond to the Michaelis–Menten constant (KM) derived from steady-state kinetic measurements. Equations describing the dependence of initial velocity, 1/VMAX, and KM/VMAX on substrate and PLP concentration were derived on the basis of these assumptions (Equations (3), (4), (5)). Using these equations, initial velocity data as a function of substrate concentration, obtained at all different fixed PLP concentrations, were globally fit together with the previously obtained values of apparent 1/VMAX and KM/VMAX as a function of PLP concentration.
Inhibition kinetics were measured in 50 mM Na-Hepes pH 7.6. […] All saturation curves obtained by varying PNP at a fixed PLP concentration were independently analyzed using the Michaelis–Menten equation, obtaining apparent VMAX and apparent KM values, which were then used to calculate 1/appVMAX and appKM/appVMAX as a function of PLP concentration.

Data set [2] has as its system human pyridoxine 5’-phosphate oxidase. Further details: method as in PMID 32788630. As to conditions: human PNPO; parabolic inhibition model; cited from earlier work.
For data set [3], the target named is T2, wildtype ePNPO (Escherichia coli, UniProt P0AFI7).
T2 construct: the entire polypeptide chain is made by 218 residues; made in house; host or cells: E. coli MDS00, pET22b(+)
T2 sequence (P0AFI7 whole entry): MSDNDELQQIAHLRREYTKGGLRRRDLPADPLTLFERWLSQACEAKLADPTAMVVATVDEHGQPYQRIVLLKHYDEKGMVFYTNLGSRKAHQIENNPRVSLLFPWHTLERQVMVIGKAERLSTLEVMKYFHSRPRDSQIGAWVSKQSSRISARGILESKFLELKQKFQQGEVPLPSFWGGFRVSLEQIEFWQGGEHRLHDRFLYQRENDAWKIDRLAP
Conditions: in solution; cited from earlier work.

The next data set concerns ePNPO. Conditions: cited from earlier work.
For data set [4], the system named is ePNPO quadruple variant (K72I/Y129F/R133L/H199A). Conditions: ePNPO quadruple variant with impaired active site; cited from earlier work.
The target of data set [5] is T1, ePNPO R23L/R24L variant. The experiment in a line: PLP retention after SEC. Conditions: 100 μM enzyme + equimolar PLP, with respect to protein subunits.
The target in data set [6] is T1, ePNPO R23L/R24L variant. As to the kind of experiment: Fluorimetric PLP binding equilibrium.
Data set [7] addresses T3, ePNPO R23L variant (Escherichia coli, UniProt P0AFI7, R23L). The experiment in a line: Fluorimetric PLP binding equilibrium.
The target of data set [8] is T2, wildtype ePNPO. Conditions: read-out: KD^PLP, fluorimetric PLP binding equilibrium; cited from earlier work.
For data set [9], the target named is T2, wildtype ePNPO. As to conditions: cited from earlier work.
Data set [10] concerns the target T3, ePNPO R23L variant. The experiment in a line: PLP retention after SEC. Conditions: 100 μM enzyme + equimolar PLP, with respect to protein subunits.
The target of data set [11] is T2, wildtype ePNPO. As to the kind of experiment: PLP retention after SEC. It is filed as binding. Conditions: 100 μM enzyme + equimolar PLP, with respect to protein subunits. How it is done: (§1) It is known by previous experiments on wildtype ePNPO that, when the protein is incubated with PLP and then passed through an SEC column, it retains PLP tightly bound to it ([7]). […] All ePNPO variants (100 μM) were incubated with an equimolar amount of PLP. Then, they were passed through an SEC column and the stoichiometry of protein-bound PLP with respect to protein subunits was determined. The percentage of protein-bound PLP was 72 ± 8, 73 ± 10, and 73 ± 19, with the K145A/F177A, N84A/K145A/F177A and N84W/K145A/F177A ePNPO variants, respectively (Table 1).

Data set [12] has as its target T4, ePNPO N84A/K145A/F177A variant (Escherichia coli, UniProt P0AFI7, F177A/K145A/N84A).
T4 construct: the entire polypeptide chain is made by 218 residues; made in house; host or cells: E. coli MDS00, pET22b(+)
As to the kind of experiment: PLP retention after SEC. The class given is binding. Conditions: 100 μM enzyme + equimolar PLP, with respect to protein subunits. The protocol:
as §1

For data set [13], the target named is T5, ePNPO K145A/F177A variant (Escherichia coli, UniProt P0AFI7, F177A/K145A).
T5 construct: the entire polypeptide chain is made by 218 residues; made in house; host or cells: E. coli MDS00, pET22b(+)
T5 sequence (P0AFI7 whole entry K145A/F177A): as the sequence (P0AFI7 whole entry) above, with K145A, F177A counted along it
As to the kind of experiment: PLP retention after SEC. The class given is binding. As to conditions: 100 μM enzyme + equimolar PLP, with respect to protein subunits. The protocol:
as §1

For data set [14], the target named is T6, ePNPO N84W/K145A/F177A variant (Escherichia coli, UniProt P0AFI7, F177A/K145A/N84W).
T6 construct: the entire polypeptide chain is made by 218 residues; made in house; host or cells: E. coli MDS00, pET22b(+)
T6 sequence (P0AFI7 whole entry N84W/K145A/F177A): as the sequence (P0AFI7 whole entry) above, with N84W, K145A, F177A counted along it
The experiment in a line: PLP retention after SEC. It is filed as binding. As to conditions: 100 μM enzyme + equimolar PLP, with respect to protein subunits. How it is done: as §1

The target of data set [15] is T4, ePNPO N84A/K145A/F177A variant. As to the kind of experiment: Fluorimetric PLP binding equilibrium. How it is done: (§2) Binding of PLP to ePNPO variants was also analyzed using the spectrofluorometric method previously employed for the wildtype enzyme ([5]), which is based on the resulting increase of FMN fluorescence emission.
For data set [16], the target named is T5, ePNPO K145A/F177A variant. The experiment in a line: Fluorimetric PLP binding equilibrium. How it is done: as §2
The target in data set [17] is T6, ePNPO N84W/K145A/F177A variant. As to the kind of experiment: Fluorimetric PLP binding equilibrium. How it is done: as §2
Data set [18] deals with the molecule itself. As to the kind of experiment: crystal structure; ePNPOqm without PLP, space group P3(1) 2 1, 1.56 Å; one subunit in the asymmetric unit, dimer generated by the crystallographic 2-fold axis; hanging drop, (NH4)2SO4, 298 K.

Several values for one entry are separate records, joined by “and”; a condition that tells them apart may be missing. Identical values can stand only once. Entries after “also recorded” stand apart in the source; their conditions may differ.

T1 sequence (P0AFI7 whole entry R23L/R24L): as the sequence (P0AFI7 whole entry) above, with R23L, R24L counted along it
T3 sequence (P0AFI7 whole entry R23L): as the sequence (P0AFI7 whole entry) above, with R23L counted along it
R23L/R24L ePNPO, sequence (P0AFI7 whole entry R23L/R24L): as the sequence (P0AFI7 whole entry) above, with R23L, R24L counted along it
T4 sequence (P0AFI7 whole entry N84A/K145A/F177A): as the sequence (P0AFI7 whole entry) above, with N84A, K145A, F177A counted along it

For the molecule `Cc1ncc(COP(=O)(O)O)c(C=O)c1O` [PLP, Pyridoxal 5’-phosphate], at R23L/R24L ePNPO, the PLP binding stoichiometry result is given as “two molecules of PLP per protein subunit; also recorded: four PLP molecules per enzyme dimer”. Moreover, the “α (allosteric coupling coefficient)” value at ePNPO R23L/R24L variant [1] was 6.6. The “γ factor (PLP active site / allosteric site coupling)” value at ePNPO R23L/R24L variant [1] is 0.31. In addition, the results for the “type of PLP inhibition” value at ePNPO R23L/R24L variant [1] (Hepes buffer) and at wildtype ePNPO [9] (wildtype ePNPO) were “parabolic inhibition” and “linear mixed-type inhibition”, respectively. The Ki was 820 ± 20 nM on ePNPO R23L/R24L variant [1] (KI (PLP binding at the allosteric site), global fit (Fig. 8A model)); 6580 ± 620 nM on ePNPO R23L/R24L variant [1] (KX (PLP binding at the active site), global fit (Fig. 8A model)); 2050 ± 60 nM at ePNPO R23L/R24L variant [1] (γKX (PLP binding at active site of PE complex), global fit (Fig. 8A model)); 590 ± 700 nM at wildtype ePNPO [9] (read-out: KI (PLP binding at the allosteric site), WT, determined according to Figure 2A model). The “αKI (PLP binding at allosteric site of ES complex)” value at ePNPO R23L/R24L variant [1] (global fit (Fig. 8A model)) is 5.39 ± 1.14 µM; on wildtype ePNPO [9] (WT, determined according to Figure 2A model), 7.13 ± 0.52 µM. Further, at ePNPO R23L/R24L variant [1] (global fit (Fig. 8A model)), the “β (coefficient reducing kCAT of PES complex)” value is 0.42 and 0.42 ± 0.05. The “α value (allosteric coupling)” value in [2] is on record as “about 3”. Also, the “β coefficient (reduction of kCAT of PES complex)” value in data set [2] was 0.15. Besides, the “stoichiometry of PLP binding to the allosteric site” value on wildtype ePNPO [3] is listed as “one PLP molecule per protein dimer”. In addition, the “kOFF of PLP binding” value with ePNPO was 3.2 s⁻¹. Also, in the data set with ePNPO, the “kON of PLP binding” value was 1.13e+07 M⁻¹ s⁻¹. Further, in data set [4], the “stoichiometry of PLP binding” value is listed as “two PLP molecules per dimer”. For the same molecule, the “PLP (%) protein-bound PLP retained after SEC” value is 30 ± 8% on ePNPO R23L/R24L variant [5]; 38 ± 11% on ePNPO R23L variant [10]; 70% and 69 ± 19% on wildtype ePNPO [11]; 73 ± 10% in data set [12]; 72 ± 8% in data set [13]; 73 ± 19% in [14]. Further, the Kd on ePNPO R23L/R24L variant [6] is 1000 ± 90 nM; at ePNPO R23L variant [7] it was 580 ± 120 nM; at wildtype ePNPO [8], 150 nM; in data set [15], 360 ± 50 nM; in data set [16], 470 ± 60 nM; in [17] it was 330 ± 70 nM.

B1: Escherichia coli pyridoxine 5'-phosphate oxidase quadruple variant K72I/Y129F/R133L/H199A (enzyme, UniProt P0AFI7 1-218, looked up)
chain: MSDNDELQQIAHLRREYTKGGLRRRDLPADPLTLFERWLSQACEAKLADPTAMVVATVDEHGQPYQRIVLLIHYDEKGMVFYTNLGSRKAHQIENNPRVSLLFPWHTLERQVMVIGKAERLSTLEVMKFFHSLPRDSQIGAWVSKQSSRISARGILESKFLELKQKFQQGEVPLPSFWGGFRVSLEQIEFWQGGEHRLADRFLYQRENDAWKIDRLAP
notes: pyridoxine 5'-phosphate oxidase (PNPO, EC 1.4.3.5) of Escherichia coli, encoded by pdxH; the entire polypeptide chain is made by 218 residues; active site impaired by four substitutions; Gene cloned in pET22b(+) between NdeI and NcoI; no tag is mentioned; Modelled residues: 7-218 in 6YLZ; 17-126 and 176-218 (chain A), 14-166 and 170-218 (chain B) in 6YMH; also called ePNPOqm; source: E. coli …
For the molecule B1, the “stoichiometry N” value in data set [18] was determined as 2.

Values taken from paper PMC8215295, “Identification and characterization of the pyridoxal 5’-phosphate allosteric site in Escherichia coli pyridoxine 5’-phosphate oxidase” (The Journal of Biological Chemistry, 2021).
